From patent US6844174B2, “Fermentation process for lipstatin and method of extracting lipstatin from a fermentation broth” (Biogal Gyogyszergyar Rt., priority 2001, dated 2005)

Tested on: Streptomyces toxytricini
Assay: toxic level of linoleic acid in liquid culture of Streptomyces toxytricini
Format: cell-based
Source text: With Streptomyces toxytricini, the toxic level of linoleic acid in liquid culture is about 2,300-3,000 ppm. […] For this reason, the pH of lipstatin fermentation was controlled so that the linoleic acid being liberated from fats and oils was enough for the lipstatin biosynthesis but not raised to a toxic level.

SMILES: CCCCC/C=C\C/C=C\CCCCCCCC(=O)O [linoleic acid]
- toxic level of linoleic acid in liquid culture: 2,300-3,000 ppm
